Like-named read-outs stand apart in the source and are kept apart here.
Legend:
T. cruzi [1] = system: T. cruzi; design: method as in PMID 32061723; details: read-out: IC50 anti-trypanosomal activity; cited from earlier work
Vero cells = system: Vero cells; design: method as in PMID 32061723; details: in comparison with bufadienolide 7; cited from earlier work
[2] = system: Batrachochytrium dendrobatidis; details: cited from earlier work
T. cruzi trypomastigotes = assay: Anti-trypanosomal bioassay, T. cruzi Tulahuen clone C4 expressing β-galactosidase; format: cell-based, Trypanosoma cruzi; details: for EC50: Trypanosoma cruzi, 120 h, read-out: T. cruzi EC50; for Inhibition of the growth of T. cruzi trypomastigotes (in words): four concentrations, screening concentration of 10 µg/mL
Protocol: Anti-trypanosomal bioassays were performed using the recombinant strain Tulahuen, clone C4, of T. cruzi in the form of trypomastigotes (ATCC, Manassas, VA, USA). This strain expresses the enzyme β-galactosidase. The parasites were incubated at 37 °C under an atmosphere of 5% CO2 in RPMI-1640 culture medium supplemented with L-glutamine,4-(2-hydroxyethyl)-piperazine-1-ethanesulfonic acid (HEPES) buffer, NaHCO3, 10% FBS and 0.05% gentamicin (50 mg/mL). Epithelial kidney monkey Vero cells (ATCC, Manassas, VA, USA) were incubated for 24 h and then infected with the parasites 24 h prior to the addition of the compounds. After additional 24 h of infection, the compounds (1–7) were dissolved in DMSO and tested at 10, 2, 0.4 and 0.08 µg/mL for five days. The drug benznidazole was used as a positive control. Chlorophenol-red-β-D-galactopyranoside (Roche Applied Science) was added to each well and then allowed to react with the β-galactosidase of the rest of the living parasites for 4.5 h to quantify the biological activity. Absorbance was measured at 570 nm using a plate reader (Sinergy HT, BioTek Instruments Inc., Winooski, VT, USA).
(§1) All bioassays represent independent analysis and were carried out in duplicate. The data analysis complement Wizard of Excel 2000 (Microsoft, Seattle, WA, USA) was used for the statistical analysis of the 50% inhibiting (IC50) and cytotoxic (CC50) concentration values by adjusting the dose-response curve to a sigmoidal model.

[3] = Cytotoxicity assay (MTT) on Vero cells; format: cell-based; details: monkey, five days, read-out: VERO CELL CC50
Protocol: Epithelial kidney monkey Vero cells were incubated at 37 °C in 96-well plates under an atmosphere of 5% CO2, using RPMI-1640 medium (Sigma-Aldrich, St. Louis, MO, USA) supplemented with 0.05% gentamicin (50 mg/mL) and 10% FBS (fetal bovine serum; Gibco, Invitrogen, Carlsbad, CA, USA). Cells were allowed to adhere for one day before incubation for five days with the compounds. Doxorubicin and DMSO were used as positive and negative controls, respectively. When the incubation period ended, 3-(4, 5-di-methyl-thiazol-2-yl)-2, 5-di-phenyl-tetra-zolium bromide (MTT) was added to the wells, and after 4 h, absorbance was measured at 570 nm using a color plate reader. Cytotoxicity was assessed colorimetrically by calculating the capacity of the remaining Vero cells to reduce the yellow MTT into the dark purple formazan product, as reported.
as §1

[4] = cited from earlier work
T. cruzi [5] = details: previous study; cited from earlier work
mouse macrophages = details: cited from earlier work
erythrocytes = details: cited from earlier work
(Na+)ATPase = details: cited from earlier work
[6] = trypomastigote form, Tulahuen clone C4, five days, tested at 10, 2, 0.4 and 0.08 µg/mL
[7] = monkey (Vero host cells), Trypanosoma cruzi (parasite), read-out: Selectivity (CC50/EC50)

SMILES: C[C@]12CC[C@H]3[C@@H](CC[C@@H]4C[C@@H](O)CC[C@@]43CO)[C@@]1(O)CC[C@@H]2c1ccc(=O)oc1 [19-hydroxy-bufalin]
- IC50 (T. cruzi [1]): 19.4 µM
- Cytotoxicity against Vero cells (in words) (Vero cells): low cytotoxicity

SMILES: C[C@]12CC[C@H](O)C[C@H]1CC[C@@H]1[C@@H]2[C@H](O)C(=O)[C@]2(C)[C@@H](c3ccc(=O)oc3)CC[C@]12O [Arenobufagin]
- Inhibition of Batrachochytrium dendrobatidis in vitro (in words) [2]: inhibit

SMILES: O=C(Cn1ccnc1[N+](=O)[O-])NCc1ccccc1 [Benznidazole, reference compound]
- EC50 (T. cruzi trypomastigotes; [6]): 2.73 ± 0.1 µM
- selectivity ratio (T. cruzi trypomastigotes; [7]): 18.8
- CC50 [3]: 51.4 ± 6 µM

SMILES: CC12CCC3C(CCC4(O)CC(O)CCC34C=O)C1(O)CC(O)C2c1ccc(=O)oc1 (stereo not drawn) [Compound 1, 16β-hydroxyl-hellebrigenin]
- EC50 (T. cruzi trypomastigotes; [6]): 22.8 ± 4.11 µM
- Inhibition of the growth of T. cruzi trypomastigotes (in words) (T. cruzi trypomastigotes): reduce the growth
- selectivity ratio (T. cruzi trypomastigotes; [7]): > 5
- CC50 [3]: > 135 µM

SMILES: C[C@]12CC[C@H](O)C[C@H]1CC[C@@H]1[C@@H]2CC[C@]2(C)[C@@H](c3ccc(=O)oc3)[C@@H](O)C[C@]12O [Compound 2, desacetyl-bufotalin]
- T. cruzi EC50 (T. cruzi trypomastigotes; [6]): Inactive
- CC50 [3]: > 28 µM
- melting point: 71 °C

SMILES: CCC(=O)OC1C(c2ccc(=O)oc2)C2(C)CCC3C(CCC4(O)CC(O)CCC34C=O)C23OC13 (stereo not drawn) [Compound 3, 19-formyl-dyscinobufotalin]
- EC50 (T. cruzi trypomastigotes; [6]): 0.19 ± 0.07 µM
- Inhibition of the growth of T. cruzi trypomastigotes (in words) (T. cruzi trypomastigotes): reduce the growth
- selectivity ratio (T. cruzi trypomastigotes; [7]): 1.16
- CC50 [3]: 0.22 ± 0.09 µM

SMILES: CC(=O)O[C@H]1C[C@]2(O)[C@@H]3CC[C@@H]4C[C@@H](O)CC[C@]4(C)[C@H]3CC[C@]2(C)[C@H]1c1ccc(=O)oc1 [Compound 4, bufotalin]
- EC50 (T. cruzi trypomastigotes; [6]): 19.6 ± 2 µM
- Inhibition of the growth of T. cruzi trypomastigotes (in words) (T. cruzi trypomastigotes): reduce the growth
- selectivity ratio (T. cruzi trypomastigotes; [7]): > 2
- CC50 [3]: > 46 µM

SMILES: CC(=O)O[C@H]1[C@H]2O[C@]23[C@@H]2CC[C@]4(O)C[C@@H](O)CC[C@]4(C)[C@H]2CC[C@]3(C)[C@H]1c1ccc(=O)oc1 [Compound 5, cinobufotalin]
- EC50 (T. cruzi trypomastigotes; [6]): 27.8 ± 3.77 µM
- Inhibition of the growth of T. cruzi trypomastigotes (in words) (T. cruzi trypomastigotes): reduce the growth
- selectivity ratio (T. cruzi trypomastigotes; [7]): 0.07
- CC50 [3]: 1.88 ± 0.2 µM

SMILES: CCC(=O)OC1C(c2ccc(=O)oc2)C2(C)CCC3C(CCC4(O)CC(O)CCC34C)C23OC13 (stereo not drawn) [Compound 6, dyscinobufotalin]
- EC50 (T. cruzi trypomastigotes; [6]): 12.3 ± 1.87 µM
- Inhibition of the growth of T. cruzi trypomastigotes (in words) (T. cruzi trypomastigotes): reduce the growth
- selectivity ratio (T. cruzi trypomastigotes; [7]): < 0.01
- CC50 [3]: 0.02 ± 0.002 µM

SMILES: C[C@]12CC[C@H](O)C[C@H]1CC[C@@H]1[C@@H]2CC[C@]2(C)[C@@H](c3ccc(=O)oc3)CC[C@]12O [Compound 7, bufalin]
- EC50 (T. cruzi trypomastigotes; TULAHUEN): 3.93 ± 0.57 µM
- Selectivity (CC50/EC50) (T. cruzi trypomastigotes; cytotoxicity on Vero cells/anti-trypanosomal activity ratio): 2.69
- Inhibition of the growth of T. cruzi trypomastigotes (in words) (T. cruzi trypomastigotes): reduce the growth
- selectivity ratio at 5 days (T. cruzi trypomastigotes; monkey (Vero host cells), Trypanosoma cruzi (parasite), cytotoxicity on Vero cells/anti-trypanosomal activity ratio, read-out: Selectivity (CC50/EC50)): 2.7
- CC50 at 5 days [3]: 10.6 ± 1.54 µM

SMILES: COc1cccc2c1C(=O)c1c(O)c3c(c(O)c1C2=O)C[C@@](O)(C(=O)CO)C[C@@H]3O[C@H]1C[C@H](N)[C@H](O)[C@H](C)O1 [Doxorubicin, reference compound]
- CC50 [3]: 0.23 µM

SMILES: Clc1ccc(C2CC3CCC2N3)cn1 (stereo not drawn) [epibatidine]
- Analgesic potency relative to morphine [4]: 200 times more potent than morphine

SMILES: C[C@]12CC[C@H]3[C@@H](CC[C@]4(O)C[C@@H](O)CC[C@]34C=O)[C@@]1(O)CC[C@@H]2c1ccc(=O)oc1 [hellebrigenin]
- Trypanocidal activity (T. cruzi [5]): 91.7 µg/mL
- Cytotoxicity on mouse macrophages (in words) (mouse macrophages): no toxic effects
- Cytotoxicity on erythrocytes (in words) (erythrocytes): no toxic effects

SMILES: C[C@@H]1O[C@@H](O[C@H]2C[C@@H](O)[C@]3(CO)[C@H]4[C@H](O)C[C@]5(C)[C@@H](C6=CC(=O)OC6)CC[C@]5(O)[C@@H]4CC[C@]3(O)C2)[C@H](O)[C@H](O)[C@H]1O [ouabain]
- Inhibition of enzymatic activity of (Na+)ATPase (in words) ((Na+)ATPase): not inhibited

SMILES: C[C@]12CC[C@H](O)C[C@@]1(O)CC[C@@H]1[C@@H]2CC[C@]2(C)[C@@H](c3ccc(=O)oc3)CC[C@]12O [telocinobufagin]
- Trypanocidal activity (T. cruzi [5]): inactive
- Inhibition of Batrachochytrium dendrobatidis in vitro (in words) [2]: inhibit
- Cytotoxicity on mouse macrophages (in words) (mouse macrophages): no toxic effects
- Cytotoxicity on erythrocytes (in words) (erythrocytes): no toxic effects

SMILES: C[C@]12CC[C@H](O)C[C@H]1CC[C@@H]1[C@@H]2[C@H](O)C[C@]2(C)[C@@H](c3ccc(=O)oc3)CC[C@]12O [γ-bufotalin]
- Inhibition of Batrachochytrium dendrobatidis in vitro (in words) [2]: inhibit

Source: paper PMC10779871, “Anti-Trypanosomal Bufadienolides from the Oocytes of the Toad Rhinella alata (Anura, Bufonidae)” (Molecules, 2023)
